From ChEMBL document CHEMBL2016457, “Discovery of potent and orally bioavailable 17β-hydroxysteroid dehydrogenase type 3 inhibitors” (Bioorg Med Chem, 2012)
Active and inactive are the calls of the source.

What was measured:
[1] = target: T1, Estrogen receptor (Homo sapiens) (UniProt P03372); assay: Agonist activity at human Estrogen receptor ERalpha expressed in human HeLa cells assessed as DHT-induced response after 40 hrs by luciferase/beta-galactosidase-based reporter gene assay; format: functional, cell-based
T1 sequence (whole entry): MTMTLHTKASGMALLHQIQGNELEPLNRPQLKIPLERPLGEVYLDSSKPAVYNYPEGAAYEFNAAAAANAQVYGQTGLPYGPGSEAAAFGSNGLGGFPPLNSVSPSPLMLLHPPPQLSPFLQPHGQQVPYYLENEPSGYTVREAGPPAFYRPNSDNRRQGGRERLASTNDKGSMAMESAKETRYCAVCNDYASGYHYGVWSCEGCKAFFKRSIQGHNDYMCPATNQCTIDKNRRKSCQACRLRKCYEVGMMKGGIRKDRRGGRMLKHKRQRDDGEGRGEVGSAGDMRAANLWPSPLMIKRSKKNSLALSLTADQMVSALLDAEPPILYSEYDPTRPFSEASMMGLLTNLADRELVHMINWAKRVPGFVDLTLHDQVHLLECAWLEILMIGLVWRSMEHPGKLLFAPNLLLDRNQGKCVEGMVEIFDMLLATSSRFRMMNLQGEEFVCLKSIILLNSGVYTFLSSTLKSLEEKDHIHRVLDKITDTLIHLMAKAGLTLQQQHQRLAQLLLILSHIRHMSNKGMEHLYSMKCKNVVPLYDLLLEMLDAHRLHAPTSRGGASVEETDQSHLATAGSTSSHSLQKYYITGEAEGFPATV

[2] = target: T1, Estrogen receptor (Homo sapiens); assay: Antagonist activity at human ERalpha receptor expressed in human HeLa cells assessed as inhibition of DHT-induced response after 40 hrs by luciferase/beta-galactosidase-based reporter gene assay; format: functional, cell-based
[3] = target: T2, 17-beta-hydroxysteroid dehydrogenase type 2 (Homo sapiens) (UniProt P37059); assay: Inhibition of human recombinant 17-beta-HSD2 expressed in human HeLa cells using estradiol as substrate preincubated for 30 mins prior substrate addition measured after 120 mins by spectrophotometry; format: cell-based
T2 sequence (whole entry): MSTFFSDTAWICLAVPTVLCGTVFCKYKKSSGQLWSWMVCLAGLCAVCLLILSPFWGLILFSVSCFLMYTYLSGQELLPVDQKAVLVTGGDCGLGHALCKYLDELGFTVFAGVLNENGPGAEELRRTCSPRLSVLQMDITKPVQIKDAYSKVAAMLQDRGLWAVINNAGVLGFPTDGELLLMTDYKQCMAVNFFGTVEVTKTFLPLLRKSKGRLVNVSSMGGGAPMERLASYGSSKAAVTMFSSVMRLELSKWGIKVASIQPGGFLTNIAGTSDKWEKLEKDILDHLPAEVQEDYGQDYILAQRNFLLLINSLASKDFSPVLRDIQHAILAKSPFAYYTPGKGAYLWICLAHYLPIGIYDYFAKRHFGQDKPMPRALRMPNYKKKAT

[4] = target: T3, Androgen receptor (Homo sapiens) (UniProt P10275); assay: Antagonist activity at human androgen receptor expressed in human HeLa cells assessed as inhibition of DHT-induced response after 40 hrs by luciferase/beta-galactosidase-based reporter gene assay; format: functional, cell-based
T3 sequence (whole entry): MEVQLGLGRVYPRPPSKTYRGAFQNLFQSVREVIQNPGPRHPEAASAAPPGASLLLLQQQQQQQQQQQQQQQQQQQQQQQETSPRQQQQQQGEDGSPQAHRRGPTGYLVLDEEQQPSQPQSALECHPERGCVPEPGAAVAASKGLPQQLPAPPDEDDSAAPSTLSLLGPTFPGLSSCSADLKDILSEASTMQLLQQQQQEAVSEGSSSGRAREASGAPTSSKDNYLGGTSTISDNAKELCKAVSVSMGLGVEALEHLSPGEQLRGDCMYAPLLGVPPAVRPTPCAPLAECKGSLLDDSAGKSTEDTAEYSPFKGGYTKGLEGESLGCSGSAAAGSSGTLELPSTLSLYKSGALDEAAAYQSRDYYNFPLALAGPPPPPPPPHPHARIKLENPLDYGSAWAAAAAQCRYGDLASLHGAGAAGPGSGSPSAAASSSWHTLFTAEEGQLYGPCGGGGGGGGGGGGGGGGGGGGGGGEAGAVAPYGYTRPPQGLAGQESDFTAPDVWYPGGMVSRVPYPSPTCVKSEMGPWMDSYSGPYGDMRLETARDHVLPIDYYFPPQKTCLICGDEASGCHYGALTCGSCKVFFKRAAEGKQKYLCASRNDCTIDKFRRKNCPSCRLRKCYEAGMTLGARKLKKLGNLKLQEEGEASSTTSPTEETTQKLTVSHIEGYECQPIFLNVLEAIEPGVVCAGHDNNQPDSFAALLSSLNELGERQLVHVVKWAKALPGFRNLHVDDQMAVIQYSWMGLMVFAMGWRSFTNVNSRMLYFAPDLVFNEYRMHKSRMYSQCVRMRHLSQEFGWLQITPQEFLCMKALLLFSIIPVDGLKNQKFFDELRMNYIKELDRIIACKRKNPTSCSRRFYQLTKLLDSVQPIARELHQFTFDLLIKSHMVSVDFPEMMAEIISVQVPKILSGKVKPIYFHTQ

[5] = target: T4, Glucocorticoid receptor (Homo sapiens) (UniProt P04150); assay: Agonist activity at human Glucocorticoid receptor expressed in human HeLa cells assessed as DHT-induced response after 40 hrs by luciferase/beta-galactosidase-based reporter gene assay; format: functional, cell-based
T4 sequence (whole entry): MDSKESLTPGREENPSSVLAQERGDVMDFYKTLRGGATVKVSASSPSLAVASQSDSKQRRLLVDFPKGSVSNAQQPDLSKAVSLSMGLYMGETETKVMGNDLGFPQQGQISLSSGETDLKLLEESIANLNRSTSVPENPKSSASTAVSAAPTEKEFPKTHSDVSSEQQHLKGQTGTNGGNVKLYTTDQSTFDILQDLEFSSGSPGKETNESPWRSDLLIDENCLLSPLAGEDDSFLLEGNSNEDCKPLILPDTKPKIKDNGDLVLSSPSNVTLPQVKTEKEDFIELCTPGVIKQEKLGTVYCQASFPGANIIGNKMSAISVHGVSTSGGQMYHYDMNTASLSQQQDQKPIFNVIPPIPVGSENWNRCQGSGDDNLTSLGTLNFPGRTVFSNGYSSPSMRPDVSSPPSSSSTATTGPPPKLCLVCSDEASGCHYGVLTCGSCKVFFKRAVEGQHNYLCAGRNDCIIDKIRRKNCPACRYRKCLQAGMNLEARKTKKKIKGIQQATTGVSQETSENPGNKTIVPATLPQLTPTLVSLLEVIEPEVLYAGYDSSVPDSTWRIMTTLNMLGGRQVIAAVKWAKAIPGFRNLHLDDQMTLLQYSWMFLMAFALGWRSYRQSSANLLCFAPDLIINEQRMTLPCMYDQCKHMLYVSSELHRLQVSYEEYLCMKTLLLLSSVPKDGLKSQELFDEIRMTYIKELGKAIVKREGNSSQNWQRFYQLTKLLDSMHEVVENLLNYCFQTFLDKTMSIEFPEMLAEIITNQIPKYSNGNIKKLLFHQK

[6] = target: T4, Glucocorticoid receptor (Homo sapiens); assay: Antagonist activity at human GR receptor expressed in human HeLa cells assessed as inhibition of DHT-induced response after 40 hrs by luciferase/beta-galactosidase-based reporter gene assay; format: functional, cell-based
[7] = target: T3, Androgen receptor (Homo sapiens); assay: Agonist activity at human androgen receptor expressed in human HeLa cells assessed as DHT-induced response after 40 hrs by luciferase/beta-galactosidase-based reporter gene assay; format: functional, cell-based
[8] = target: T5, 17-beta-hydroxysteroid dehydrogenase type 1 (Homo sapiens) (UniProt P14061); assay: Inhibition of human recombinant 17-beta-HSD1 expressed in human HeLa cells using estrone as substrate preincubated for 30 mins prior substrate addition measured after 120 mins by spectrophotometry; format: cell-based
T5 sequence (whole entry): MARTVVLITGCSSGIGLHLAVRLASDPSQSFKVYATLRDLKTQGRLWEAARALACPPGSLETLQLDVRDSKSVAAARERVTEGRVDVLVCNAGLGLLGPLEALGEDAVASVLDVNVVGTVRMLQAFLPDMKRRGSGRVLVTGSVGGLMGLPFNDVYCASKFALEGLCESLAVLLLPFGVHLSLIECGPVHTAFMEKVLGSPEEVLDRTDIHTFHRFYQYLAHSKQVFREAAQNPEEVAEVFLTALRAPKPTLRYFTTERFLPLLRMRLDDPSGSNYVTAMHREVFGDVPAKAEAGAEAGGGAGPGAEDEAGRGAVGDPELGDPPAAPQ

[9] = target: T6, 17-beta-hydroxysteroid dehydrogenase type 3 (Homo sapiens, UniProt P37058)
T6 sequence (P37058 whole entry): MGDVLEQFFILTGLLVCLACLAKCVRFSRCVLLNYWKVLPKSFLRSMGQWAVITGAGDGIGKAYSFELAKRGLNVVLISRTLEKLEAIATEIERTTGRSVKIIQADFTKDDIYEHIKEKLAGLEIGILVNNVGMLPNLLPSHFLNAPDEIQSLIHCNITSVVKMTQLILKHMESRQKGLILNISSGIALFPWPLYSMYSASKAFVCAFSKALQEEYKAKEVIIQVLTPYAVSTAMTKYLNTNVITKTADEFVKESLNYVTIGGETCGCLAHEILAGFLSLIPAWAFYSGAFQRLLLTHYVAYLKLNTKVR
Description: Inhibition of human recombinant 17-beta-HSD3 expressed in human HeLa cells using androstenedione as substrate preincubated for 30 mins prior substrate addition measured after 120 mins by spectrophotometry

CN(C)c1ccc(N2C(=O)O/C(=C\c3ccc(O)c(Br)c3)C2=O)cc1
25 nM: IC50 [9]
inactive: Activity [1] | Activity [2] | inhibition [3] | Activity [4] | Activity [5] | Activity [6] | Activity [7] | inhibition [8]

O=C1/C(=C/c2ccc(O)c(Br)c2)OC(=S)N1c1ccc(C(F)(F)F)cc1
3 nM: IC50 [9]
inactive: Activity [1] | Activity [2] | inhibition [3] | Activity [4] | Activity [5] | Activity [6] | Activity [7] | inhibition [8]

O=C1/C(=C/c2ccc(O)c(Br)c2)SC(=S)N1C1CCOCC1
75 nM: IC50 [9]
inactive: Activity [1] | Activity [2] | inhibition [3] | Activity [4] | Activity [5] | Activity [6] | Activity [7] | inhibition [8]

Cc1ccc(N2C(=O)O/C(=C\c3ccc(O)c(Br)c3)C2=O)cn1
67 nM: IC50 [9]
inactive: Activity [1] | Activity [2] | inhibition [3] | Activity [4] | Activity [5] | Activity [6] | Activity [7] | inhibition [8]

O=C1/C(=C/c2ccc(O)c(Br)c2)OC(=S)N1c1ccccc1
6 nM: IC50 [9]
inactive: Activity [1] | Activity [2] | inhibition [3] | Activity [4] | Activity [5] | Activity [6] | Activity [7] | inhibition [8]

O=C1O/C(=C\c2ccc(O)c(Br)c2)C(=O)N1c1ccc(F)nc1
inactive: Activity [1] | Activity [2] | inhibition [3] | Activity [4] | Activity [5] | Activity [6] | Activity [7] | inhibition [8]
21 nM: IC50 [9]

COc1ccc(N2C(=O)/C(=C/c3cc(F)c(O)c(F)c3)OC2=S)cc1
5 nM: IC50 [9]
inactive: Activity [1] | Activity [2] | inhibition [3] | Activity [4] | Activity [5] | Activity [6] | Activity [7] | inhibition [8]

CS(=O)(=O)c1ccc(N2C(=O)O/C(=C\c3ccc(O)c(Br)c3)C2=O)cc1
900 nM: IC50 [9]
inactive: Activity [1] | Activity [2] | inhibition [3] | Activity [4] | Activity [5] | Activity [6] | Activity [7] | inhibition [8]

COc1ccc(N2C(=O)/C(=C/c3ccc(O)cn3)OC2=S)cc1
inactive: Activity [1] | Activity [2] | inhibition [3] | Activity [4] | Activity [5] | Activity [6] | Activity [7] | inhibition [8]
90 nM: IC50 [9]

COc1ccc(N2C(=O)/C(=C/c3ccc(O)c(Br)c3)SC2=S)cc1
inactive: Activity [1] | Activity [2] | inhibition [3] | Activity [4] | Activity [5] | Activity [6] | Activity [7] | inhibition [8]

COc1ccc(N2C(=O)O/C(=C\c3ccc(O)c(Br)c3)C2=O)cc1
inactive: Activity [1] | Activity [2] | inhibition [3] | Activity [4] | Activity [5] | Activity [6] | Activity [7] | inhibition [8]
